This passage reports IC50 results from patent US11173145B2, “Compounds useful as inhibitors of indoleamine 2,3-dioxygenase and/or tryptophan dioxygenase” (Board of Regents, The University of Texas System, priority 2017, dated 2021).

T1 sequence (P14902 whole entry): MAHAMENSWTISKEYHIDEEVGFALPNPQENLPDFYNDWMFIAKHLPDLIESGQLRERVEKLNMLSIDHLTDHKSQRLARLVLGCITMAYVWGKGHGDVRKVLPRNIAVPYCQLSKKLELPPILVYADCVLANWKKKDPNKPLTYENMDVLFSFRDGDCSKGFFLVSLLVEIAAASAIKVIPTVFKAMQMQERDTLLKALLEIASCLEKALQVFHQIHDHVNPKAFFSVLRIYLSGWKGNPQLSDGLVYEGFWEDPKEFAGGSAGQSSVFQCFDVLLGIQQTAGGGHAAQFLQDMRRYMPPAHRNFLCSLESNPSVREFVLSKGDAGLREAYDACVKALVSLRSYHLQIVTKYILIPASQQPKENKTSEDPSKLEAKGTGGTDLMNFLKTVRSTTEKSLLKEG

The experiment addresses T1, IDO1 (Homo sapiens, UniProt P14902).
T1 construct: endogenous in cells; host or cells: HeLa cells (ATCC), IFNgamma-induced
Put plainly: IDO1 cell-based assay (HeLa cells, IFNgamma-induced, N-formylkynurenine/L-tryptophan by RFMS). To be noted: 10 ng/mL IFNgamma, 24 hours. Summed up:
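HeLa cells stimulated with 10 ng/mL IFNgamma and exposed to compound (0.5% DMSO final) for 24 h at 37 °C. Conditioned media deproteinized, then N-formylkynurenine and L-tryptophan quantified by RapidFire MS with deuterated tryptophan internal standard; IC50 by curve fitting. Viability checked by CellTiter-Glo.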
As to `CCC(NC(=O)c1ccc(Cl)cc1)[C@H]1[C@@H]2C[C@@H](NC(=O)c3cccnn3)C[C@@H]21` (stereo partly drawn) [Compound 151, N-((1R,3s,5S,6r)-6-(1-(4-chlorobenzamido)propyl)bicyclo[3.1.0]hexan-3-yl)pyridazine-3-carboxamide], the IC50 was less than 200 nM. In the case of `CCC(NC(=O)c1ccc(Cl)cc1)[C@H]1[C@@H]2C[C@@H](Oc3cncc(F)c3)C[C@@H]21` (stereo partly drawn) [Compound 58, 4-chloro-N-(1-((1R,3s,5S,6r)-3-((5-fluoropyridin-3-yl)oxy)bicyclo[3.1.0]hexan-6-yl)propyl)benzamide], the concentration for half-maximal inhibition (IC50) was less than 200 nM. With `CC[C@@H](NC(=O)c1ccc(Cl)cc1)[C@H]1[C@@H]2C[C@@H](NC(=O)c3cccnc3)C[C@@H]21` [Compound 335, N-((1R,3S,5S,6r)-6-((R)-1-(4-chlorobenzamido)propyl)bicyclo[3.1.0]hexan-3-yl)nicotinamide] the figure was less than 200 nM.

In turn, `N#Cc1cccc(C(=O)NC[C@@H]2[C@H]3C[C@H](n4cnc5cc(F)c(F)cc54)C[C@@H]23)c1` [Compound 321, 3-cyano-N-(((1R,3s,5S,6r)-3-(5,6-difluoro-1H-benzo[d]imidazol-1-yl)bicyclo[3.1.0]hexan-6-yl)methyl)benzamide] registered an IC50 of 200 to 2000 nM. In turn, `CC[C@@H](NC(=O)c1ccc(C#N)cc1)[C@H]1[C@@H]2C[C@@H](n3cc(C4CCOC4)nn3)C[C@@H]21` (stereo partly drawn) [Compound 295, 4-cyano-N-((1R)-1-((1R,3S,5S,6r)-3-(4-(tetrahydrofuran-3-yl)-1H-1,2,3-triazol-1-yl)bicyclo[3.1.0]hexan-6-yl)propyl)benzamide] yielded an IC50 of 200 to 2000 nM.

`CC[C@@H](NC(=O)c1ccc(Cl)cc1)[C@H]1[C@@H]2C[C@@H](n3cc(C(=O)OC)cn3)C[C@@H]21` [Compound 326, methyl 1-((1R,3S,5S,6r)-6-((R)-1-(4-chlorobenzamido)propyl)bicyclo[3.1.0]hexan-3-yl)-1H-pyrazole-4-carboxylate]: the concentration for half-maximal inhibition (IC50) is less than 200 nM. In turn, `O=C(Nc1ccc(Cl)cc1)N[C@H]1[C@@H]2C[C@@H](Oc3ccnc4ccc(F)cc34)C[C@@H]21` [Compound 10, 1-(4-chlorophenyl)-3-((1R,3s,5S,6r)-3-((6-fluoroquinolin-4-yl)oxy)bicyclo[3.1.0]hexan-6-yl)urea] showed an IC50 of less than 200 nM. In turn, `CCC(NC(=O)c1ccc(Cl)cc1)[C@H]1[C@@H]2C[C@@H](n3nc4ccccc4n3)C[C@@H]21` (stereo partly drawn) [Compound 100, N-(1-((1R,3s,5S,6r)-3-(2H-benzo[d][1,2,3]triazol-2-yl)bicyclo[3.1.0]hexan-6-yl)propyl)-4-chlorobenzamide] came in with an IC50 of less than 200 nM. Compound `CCC(NC(=O)c1ccc(Cl)cc1)[C@H]1[C@@H]2C[C@@H](n3ncc(=O)c4ccccc43)C[C@@H]21` (stereo partly drawn) [Compound 47, 4-chloro-N-(1-((1R,3s,5S,6r)-3-(4-oxocinnolin-1(4H)-yl)bicyclo[3.1.0]hexan-6-yl)propyl)benzamide] displayed a half-maximal inhibitory concentration (IC50) of less than 200 nM.

Turning to `O=C(NC(CCO)[C@H]1[C@@H]2C[C@@H](Oc3ncnc4ccc(F)cc34)C[C@@H]21)c1ccc(Cl)cc1` (stereo partly drawn) [Compound 137, 4-chloro-N-(1-((1R,3s, 5S, 6r)-3-((6-fluoroquinazolin-4-yl)oxy)bicyclo[3.1.0]hexan-6-yl)-3-hydroxypropyl)benzamide], the half-inhibitory concentration (IC50) fell in the range of 2000 to 5000 nM.

In turn, `CC(C)(NC(=O)c1ccc(C#N)cc1)C1[C@H]2CC(n3ncc(=O)c4ccccc43)C[C@@H]12` (stereo partly drawn) [Compound 87, 4-cyano-N-(2-((1R,5S)-3-(4-oxocinnolin-1(4H)-yl)bicyclo[3.1.0]hexan-6-yl)propan-2-yl)benzamide] registered a half-maximal inhibitory concentration (IC50) of less than 200 nM. Turning to `CCC(NC(=O)c1ccc(Cl)cc1)[C@H]1[C@@H]2C[C@@H](n3cc(C(=O)O)nn3)C[C@@H]21` (stereo partly drawn) [Compound 94, 1-((1R,3s,5S,6r)-6-(1-(4-chlorobenzamido)propyl)bicyclo[3.1.0]hexan-3-yl)-1H-1,2,3-triazole-4-carboxylic acid], the IC50 was more than 5000 nM.

A word on the IC50: it is the concentration that gives 50% inhibition. A low value points to greater potency.
